Measured values taken from US20190185544A1, “COMPOSITIONS AND METHODS OF MODULATING ABETA PROTEIN” (University of South Florida, priority 2016, published 2019).
“Also recorded” adds a separate entry of the source. Residues, ends and D or L forms follow the SMILES beside them.

What was measured:
[1] = Plasma cholesterol and brain LDLR and ApoE expression in treated 3×Tg-AD and 5×FAD mice; type: in vivo, mouse; settings: 5×FAD mice treated with 6KApoEp
Procedure: (§1) Total cell associated cholesterol levels are represented as mean±s.d. (μg/mg of total intracellular protein) from three independent experiments. In addition, total plasma cholesterol levels in 3×Tg-AD mice treated with ApoEp (n=6) and 5×FAD mice treated with 6KApoEp (n=10) or PBS (Ctrl, n=10), as described in FIGS. 25A-26G, and in associated wild-type mice (WT) were analyzed by flourometric cholesterol quantitation kit (FIG. 31B). LDLR (FIG. 31C, top panel) and ApoE (middle panel) expression levels in brain homogenates were also analyzed by WB. […] (*P<0.05) and P>0.0.5, non-significant compared to control treatment.

[2] = system: CHO/APPwt cells; test: Total cell associated cholesterol in CHO/APPwt cells; type: cell-based, Chinese hamster; settings: 6KApoEp 0, 5 and 10 μM overnight
Procedure: as §1
CHO/APPwt cells were cultured overnight in 6-well plates at 2×10^6 cells/well in serum free DMEM, followed by washing 3 times with ice-cold PBS, lysis by sonication in chloroform:isopropanol:IGEPAL CA-630 (7:11:0.1) and centrifugation. The organic phase was transferred to a new tube, air dried at 50° C. to remove chloroform and diluted 10-fold in cholesterol assay buffer for cholesterol determination by flourometric cholesterol quantitation kit according to manufacturer's instructions (MilliporeSigma).

[3] = system: CHO/APPwt cells; test: Aβ production in CHO/APPwt cells, treatment alone (Aβ1-40, 42 ELISA, 82E1 WB); type: cell-based, Chinese hamster; settings: for Aβ production (Aβ1-40, 42): serum-free medium, 2 h (ELISA) or 16 h (WB)
Procedure: Chinese hamster ovary (CHO) cells overexpressing human wild-type amyloid precursor protein (APPwt) (CHO/APPwt cells) were cultured in 96-well plate at about 2×10^4/well in Dulbecco's modified Eagle's medium (DMEM) with 10% fetal bovine serum (FBS), 1 mM sodium pyruvate and 100 U/mL of penicillin/streptomycin for 18 hours.
CHO/APPwt cells were cultured in 96-well plate (about 2×10^4/well) in serum-free medium and treated with ApoE LDLR, FlagApoE LDLR (SEQ ID NO.: 1 with an N-terminal FLAG tag), BiotinApo LDLR (SEQ ID NO.: 1 with an N-terminal Biotin) and 3 lysinesApoE LDLR (3KApoE LDLR (SEQ ID NO.: 2)) at indicated doses for about 2 hours.
The conditioned media and cell lysates were prepared, and subjected to Aβ ELISA and protein assay.
CHO cells overexpressing human wild-type APP (CHO/APPwt) cells were cultured in 96-well plate at 2×10^4/well in Dulbecco's modified Eagle's medium (DMEM) with 10% fetal bovine serum (FBS), 1 mM sodium pyruvate and 100 U/mL of penicillin/streptomycin for 18 hours. […] 82E1 WB analyses as shown below the Aβ ELISA result histograms. The Aβ ELISA results are representative of three independent experiments with each condition triplicated and presented as mean±SD.
(residues 133-152, SEQ ID NO: 1)] as indicated for 2 and 16 hours (h). The conditioned media and cell lysates were analyzed by Aβ1-40, 42 ELISA (FIG. 10A), 82E1 WB analysis (FIG. 10B) and protein assay, respectively. In addition, (FIG. 10C) CHO/APPwt cells were cultured in 96-well plate (2×10^4/well) in serum-free DMEM and treated with FlagApoE-LBDP, BiotinApoE-LBDP and 3 lysineApoE-LBDP (3KApoE-LBDP) in comparing to ApoE-LBDP at indicated doses for 2 hours (h). […] (SEQ ID NO: 2); […]-[…] (SEQ ID NO: 10); Biotin-[…] (SEQ ID NO: 1 with an N-Terminal Biotin).
CHO cells engineered to express human wild-type APP (CHO/APPwt) or Swedish mutant APP (CHO/APPswe) were obtained. These cells were cultured in 96 or 24 well plates at 4×10^4 or 2×10^5 cells/well, respectively, in Dulbecco's modified Eagle's medium (DMEM) with 10% fetal bovine serum, 1 mM sodium pyruvate and 100 U/mL of penicillin/streptomycin (Invitrogen, Thermo Fisher Scientific). In addition, murine N2a cells transfected with APPwt (N2a/APPwt were obtained), SH-SY5Y cells transfected with APPswe and wild-type SH-SY5Y cells (ATCC, Manassas, Va.) were cultured as previously described^42. Primary hN2TM human neurons (Neuromics, Edina, Minn.) were cultured in hN2TM human neuron culture media and primary HCN2 human neurons (ATCC) were cultured in DMEM with 4 mM L-glutamine adjusted to contain 1.5 g/L sodium bicarbonate, 4.5 g/L glucose, fetal bovine serum (10%).
(§2) Aβ1-40, 42 and sAPPα from cell and brain homogenates were detected by Aβ1-40, 42 and sAPPα ELISA kits (IBL-America), strictly following the manufacturer's instructions^43,44.
(§3) WB analyses were performed as previously described^43,44. Briefly, 10% bicine/tris gel containing 8 M urea was used for separation of Aβ1-40, 42 species from brain homogenates or CHO cell conditioned media or lysates, followed by transfer to 0.2 μm pore-size nitrocellulose membrane (Bio-Rad, Hercules, Calif.). The membrane was boiled in PBS for 3 to 5 min before blocking to enhance sensitivity and then incubated with 82E1. For all other proteins detected by WB, 10% tris-SDS gels were used. Densitometry analysis was performed as previously described using a FluorS Multiimager with Quantity One™ software 43.

[4] = system: CHO/APPwt cells; test: Inhibition of apoE-/lipoprotein-induced Aβ production in CHO/APPwt cells (Aβ ELISA); type: cell-based, Chinese hamster
Procedure: CHO/APPwt cells were treated with apoE LDLR binding domain peptide (aa 133-152, ApoEp), FlagApoEp, BiotinApoEp, 3K (lysine) ApoEp, 3D (aspartate) ApoEp or scrambled peptide at 0 to 25 μM, followed after 2 h by analysis of Aβ levels in conditioned media by ELISA (Aβ ELISA, FIGS. 19A and 19C) and after 16 h by analysis of Aβ in cell lysates by Western blot using 82E1 antibody (Aβ WB, FIG. 19B). […] Pre-incubating with HDL has been previously reported to lipidate apoE. Hu astro med was obtained from human astrocytes (CCF-STTG1/ATCC® CRL-1718™) as described previously. […]
CHO cells were also transfected with pCMV6 APP695 or pCMV6 E1 depleted APP695, yielding cells expressing wild type APP695 (CHO/APPwt) or truncated APP695 lacking the N-terminal E1 region (CHO/APPdE1). […] Diagram indicates important domains identified in APP, including N-terminal E1 region (top panel), and APPwt and APPdE1 proteins in cell lysates and conditioned media derived from the transfected CHO cells as determined by WB using 6E10 (middle panels). […] Asterisk indicates P<0.05 compared with the corresponding absence of 22C11, 6H3B5 or 6KApoEp, or with corresponding CHO/APPwt cells, as determined by one-way ANOVA. […]
as §2

[5] = molecular target: T1, human wild-type amyloid precursor protein (APPwt) expressed in CHO/APPwt cells (human, UniProt P05067 18-770); test: CHO/APPwt cells treated 2 h; IP of cell lysates with 6H3B5 or pN-APP and WB; immunofluorescence
T1 construct: whole, on cells; Full-length APP in cell lysates or on fixed CHO/APPwt cells; also called full-length APP; f-APP
Procedure: as §3, with “described^{43,44}.” for “described^43,44.”, “43. Immunoprecipitation (IP) was performed by first incubating conditioned media or cell lysates with appropriate antibodies and Protein-A/G Mag Sepharose beads (GE Healthcare Life Sciences, Pittsburgh, Pa.) overnight with gentle rocking at 4° C., followed by three washes with binding buffer (50 mM tris, 150 mM NaCl, pH 7.5) and analysis by WB.” for “43.”

[6] = molecular target: T2, total secreted APP (t-sAPP) in CHO/APPwt conditioned media (human, UniProt P05067 18-687, limits assumed); test: CHO/APPwt cells treated 2 h; IP of conditioned media with 6H3B5 or pN-APP and WB
T2 construct: domain: total secreted APP (t-sAPP); Mixture of secreted APP ectodomain forms
Procedure: as §3, with “described^{43,44}.” for “described^43,44.”, “43. Immunoprecipitation (IP) was performed by first incubating conditioned media or cell lysates with appropriate antibodies and Protein-A/G Mag Sepharose beads (GE Healthcare Life Sciences, Pittsburgh, Pa.) overnight with gentle rocking at 4° C., followed by three washes with binding buffer (50 mM tris, 150 mM NaCl, pH 7.5) and analysis by WB.” for “43.”

[7] = molecular target: T3, human recombinant sAPPβ (rsAPPβ, without Aβ domain) (human, UniProt P05067 18-671, limits assumed); test: in vitro incubation 1 h at 37 °C, IP with 6H3B5, WB
T3 construct: domain: sAPPβ (without Aβ domain); Bought protein

[8] = molecular target: T4, human recombinant sAPPα (rsAPPα) (human, UniProt P05067 18-687, limits assumed); test: as above
T4 construct: domain: sAPPα; also called human sAPPα protein

[9] = molecular target: T5, CHO/APPwt cell conditioned medium-derived sAPPα (cmsAPPα) (human, UniProt P05067 18-687, limits assumed); test: as above
T5 construct: domain: sAPPα

[10] = molecular target: T1, human wild-type amyloid precursor …; test: cell-based or functional assay

T1 sequence (P05067 18-770): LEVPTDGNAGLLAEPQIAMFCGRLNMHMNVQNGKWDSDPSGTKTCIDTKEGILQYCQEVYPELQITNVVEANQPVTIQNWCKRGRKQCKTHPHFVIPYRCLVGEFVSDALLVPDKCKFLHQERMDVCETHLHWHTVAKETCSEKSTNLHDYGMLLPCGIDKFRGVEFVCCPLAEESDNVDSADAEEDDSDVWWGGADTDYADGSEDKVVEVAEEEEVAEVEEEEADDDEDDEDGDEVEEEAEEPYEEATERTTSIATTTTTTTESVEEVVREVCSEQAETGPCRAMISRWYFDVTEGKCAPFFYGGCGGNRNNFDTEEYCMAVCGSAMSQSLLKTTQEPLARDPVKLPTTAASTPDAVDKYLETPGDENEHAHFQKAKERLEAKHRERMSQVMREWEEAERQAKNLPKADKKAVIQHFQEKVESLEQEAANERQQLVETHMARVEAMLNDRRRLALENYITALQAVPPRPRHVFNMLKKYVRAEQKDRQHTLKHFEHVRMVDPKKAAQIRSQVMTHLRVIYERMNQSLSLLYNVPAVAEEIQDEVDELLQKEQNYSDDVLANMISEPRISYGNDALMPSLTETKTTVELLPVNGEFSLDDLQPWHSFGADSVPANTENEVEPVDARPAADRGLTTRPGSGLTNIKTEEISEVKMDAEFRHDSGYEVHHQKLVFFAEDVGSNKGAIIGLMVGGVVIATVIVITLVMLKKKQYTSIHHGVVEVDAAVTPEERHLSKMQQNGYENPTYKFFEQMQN
T5 sequence (P05067 18-687 limits assumed): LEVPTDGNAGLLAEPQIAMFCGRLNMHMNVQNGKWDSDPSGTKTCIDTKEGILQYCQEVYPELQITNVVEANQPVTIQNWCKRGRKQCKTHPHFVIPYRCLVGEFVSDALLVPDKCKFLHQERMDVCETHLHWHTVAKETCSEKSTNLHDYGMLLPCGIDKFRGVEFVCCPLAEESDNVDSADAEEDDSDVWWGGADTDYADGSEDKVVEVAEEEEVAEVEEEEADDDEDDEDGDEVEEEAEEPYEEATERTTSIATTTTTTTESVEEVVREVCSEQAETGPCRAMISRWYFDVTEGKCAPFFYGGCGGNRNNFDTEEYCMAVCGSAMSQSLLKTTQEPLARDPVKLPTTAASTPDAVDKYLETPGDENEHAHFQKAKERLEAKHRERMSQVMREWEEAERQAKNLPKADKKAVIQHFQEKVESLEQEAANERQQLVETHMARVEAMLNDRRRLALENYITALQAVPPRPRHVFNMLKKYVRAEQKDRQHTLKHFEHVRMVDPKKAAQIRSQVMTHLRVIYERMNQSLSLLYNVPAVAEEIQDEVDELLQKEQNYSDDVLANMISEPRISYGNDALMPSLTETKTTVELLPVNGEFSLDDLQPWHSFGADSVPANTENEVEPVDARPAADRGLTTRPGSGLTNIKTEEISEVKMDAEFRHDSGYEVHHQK
T2 sequence (P05067 18-687 limits assumed): as above
T4 sequence (P05067 18-687 limits assumed): as above
T3 sequence (P05067 18-671 limits assumed): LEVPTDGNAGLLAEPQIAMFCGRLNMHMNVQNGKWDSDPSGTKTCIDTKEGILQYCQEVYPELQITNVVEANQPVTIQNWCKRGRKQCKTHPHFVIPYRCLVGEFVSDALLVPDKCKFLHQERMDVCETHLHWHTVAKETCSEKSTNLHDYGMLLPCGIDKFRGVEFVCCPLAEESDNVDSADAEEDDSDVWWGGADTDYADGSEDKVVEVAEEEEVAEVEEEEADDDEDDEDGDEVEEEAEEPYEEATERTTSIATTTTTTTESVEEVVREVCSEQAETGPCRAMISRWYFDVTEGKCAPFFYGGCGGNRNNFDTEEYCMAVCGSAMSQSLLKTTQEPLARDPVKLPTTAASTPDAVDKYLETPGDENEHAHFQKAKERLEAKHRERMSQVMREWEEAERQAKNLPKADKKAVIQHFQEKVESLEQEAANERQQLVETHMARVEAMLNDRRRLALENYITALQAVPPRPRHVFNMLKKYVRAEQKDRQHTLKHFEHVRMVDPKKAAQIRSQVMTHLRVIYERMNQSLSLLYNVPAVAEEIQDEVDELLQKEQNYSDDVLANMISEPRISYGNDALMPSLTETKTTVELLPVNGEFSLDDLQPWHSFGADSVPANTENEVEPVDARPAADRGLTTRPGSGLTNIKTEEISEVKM

Molecule: CC(C)C[C@H](NC(=O)[C@H](CCCNC(=N)N)NC(=O)[C@@H](NC(=O)[C@H](CCCNC(=N)N)NC(=O)[C@H](CC(C)C)NC(=O)[C@H](CCCCN)NC(=O)[C@H](CCCCN)NC(=O)[C@H](CCCCN)NC(=O)[C@H](CCCCN)NC(=O)[C@H](CCCCN)NC(=O)[C@@H](N)CCCCN)C(C)C)C(=O)N[C@@H](C)C(=O)N[C@@H](CO)C(=O)N[C@@H](Cc1c[nH]cn1)C(=O)N[C@@H](CC(C)C)C(=O)N[C@@H](CCCNC(=N)N)C(=O)N[C@@H](CCCCN)C(=O)N[C@@H](CC(C)C)C(=O)N[C@@H](CCCNC(=N)N)C(=O)N[C@@H](CCCCN)C(=O)N[C@@H](CCCNC(=N)N)C(=O)N[C@@H](CC(C)C)C(=O)N[C@@H](CC(C)C)C(=O)N[C@@H](CCCNC(=N)N)C(=O)N[C@@H](CC(=O)O)C(=O)N[C@@H](C)C(=O)O [6KApoEp] (H-KKKKKKLRVRLASHLRKLRKRLLRDA-OH; N-terminus and C-terminus assumed)
- plasma cholesterol levels [1]: without altering cell-associated or plasma cholesterol levels
- cell-associated cholesterol levels [2]: without altering cell-associated or plasma cholesterol levels

Molecule: ApoB100: apolipoprotein B, human plasma (Athens Research & Technology)
- sAPPα secretion [3]: decreased sAPPα secretion
- Aβ production (Aβ1-40, 42) [3]: increased Aβ1-40, 42 production; also recorded: markedly promote amyloid β protein (Aβ) production

Molecule: DYKDDDDK-LRVRLASHLRKLRKRLLRDA (DYKDDDDKLRVRLASHLRKLRKRLLRDA; N-terminal FLAG ApoE recombinant polypeptide) [FlagApoEp, ApoEp modified by N-terminal addition of Flag-Tag]
- Aβ production (Aβ1-40, 42) [3]: greatly enhanced the efficacy of ApoEp to increase Aβ1-40, 42 levels

Molecule: KKKLRVRLASHLRKLRKRLLRDA (polypeptide configured to modulate binding of a protein the an ApoE receptor) [3KApoEp, ApoEp with 3 N-terminal lysines]
- basal and apoE4-induced Aβ production ([4]; peptide 10 μM for 15 min, then with or without hu rec ApoE4 10 μg/mL for 2 hours): moderately
- Aβ generation induced by human plasma ApoE3, human recombinant ApoE3 and ApoE4, human plasma LDL and ApoB100 ([4]; pre-treatment at about 10 μM, then inducer for about 2 hours): Markedly Inhibits Aβ Generation
- Aβ production (Aβ1-40, 42) [3]: terminated this amyloidogenic effect

B1: 6K (6 lysine peptide) (peptide)
peptide: KKKKKK
notes: Control peptide of six lysines; also called 6K lysine
- binding result [5]: no binding (tested: 10 µM)
- binding result [6]: no binding (tested: 10 µM)
- binding result [7]: no binding (tested: 100 nM)
- binding result [8]: no binding (tested: 100 nM)
- binding result [9]: no binding (tested: 100 nM)

Molecule: KKKKKKLRVRLASHLRKLRKRLLRDA [6KApoEp (ApoE LDLR binding domain peptide with 6 N-terminal lysines)]
- apoE4-induced Aβ production in CHO/APPwt cells (Aβ ELISA and WB), IC50 [10]: 320 to 630 nM
